Measured values published in patent EP4782437A1, “HETEROARYL COMPOUND, AND PREPARATION METHOD THEREFOR AND USE THEREOF IN MEDICINE” (Jiangsu Hengrui Pharmaceuticals Co., Ltd., priority 2023, dated 2025).
Where two headings read alike, the source gives them in different places.

Columns and labels:
[1] = tested on: B cell activation in human whole blood; assay: Inhibition of B cell activation in human whole blood (CD69 expression, flow cytometry); format: cell-based; settings: anti-human IgD 30 µg/ml + IL-4 5 ng/ml, 18 hours, CD69-positive CD19-positive B cells, read-out: IC50 values of inhibitory activity against B cell activation in human whole blood
From the text: Test example 2: Inhibitory activity of compounds of the present disclosure against B cell activation in human whole blood • I. Experimental materials and instruments • 1. Human whole blood (internal recruitment) • 2. Goat F(ab')2 anti-human IgD-UNLB (SouthernBiotech, 2032-01) • 3. DPBS (1x) (Gibco, 14190-144) • 4. Recombinant human IL-4 (Peprotech, 200-04) • 5. Brilliant Violet 421™ anti-human CD19 antibody (Biolegend, 302234) • 6. APC anti-human CD69 antibody (Biolegend, 310910) • 7. APC mouse IgG1, κ isotype control antibody (Biolegend, 400120) • 8. eBioscience™ 10X RBC lysis buffer (multi-species) (Thermo, 004300-54) • 9. NEST 96-well deep-well plate (Wuxi NEST Biotechnology Co., Ltd., 503501) • 10. 96-well round-bottom plate (Corning, 3788) • 11. 96-well flat-bottom plate (Corning, 3599) • 12. Attune™ NxT acoustic focusing cytometer (ThermoFisher Scientific, 4.2.0) • 13. Cell incubator (Thermo, Forma steri-cycle i160) • II. Experimental procedure
B cells express the B cell receptor (BCR) complex on their surface. When B cells in human whole blood are induced to activate, they can trigger the downstream signalling pathways of the receptor and express the activation marker CD69. The expression of CD69 in activated B cells was detected by flow cytometry, and the IC50 of the compounds were calculated to evaluate the effects of the compounds on BCR activation.
The test compounds dissolved in 100% DMSO at 20 mM were diluted with 100% DMSO to a concentration of 1 mM, which represents the 200× concentration of the highest compound concentration point in the reaction system. The compounds at this concentration were then subjected to 8-point 4-fold serial dilution with 100% DMSO. The positive control wells were set with 100% DMSO, whereas the negative control wells were set with Remiburtinib at a final concentration of 5 µM. The serially diluted compounds and 100% DMSO were further diluted 10-fold in PBS to achieve the 20× concentration, followed by thorough mixing.
After thorough mixing, the whole blood sample was transferred to a loading reservoir and then dispensed into a 96-well flat-bottom plate at 80 µl per well. The compound dilution was dispensed at 5 µl per well. The 11th column of each row was designated as the negative control well, with 5 µl of 100 µM positive control drug added to each well. After thorough mixing for 5 min, the plate was incubated in a 37°C incubator for 30 min. Human IgD antibody was diluted 1.67-fold with PBS to a concentration of 300 µg/mL, and 10 µl of the diluted solution was added to each well of the culture plate (final concentration: 30 µg/ml). Human IL-4 (stock solution at 50 µg/ml) was diluted 500-fold with PBS to a concentration of 100 ng/mL, and 5 µl of the diluted solution was added to each well of the culture plate (final concentration: 5 ng/ml). After thorough mixing for 5 min, the plate was cultured in a 37°C incubator with 5% CO2 for 18 hours.
Flow cytometry detection: CD69-APC, CD19-BV421 and CD4-APC antibodies, and the isotype control antibodies for CD69-APC were removed from 4°C storage. Each antibody was added at 1 µl per well. After thorough mixing for 5 min, the plate was incubated for 30 min at 4°C (refrigerator) in the dark for staining. The 10X RBC lysis buffer was diluted in water to prepare 1X RBC lysis buffer. Aliquots of 1 ml of the lysis buffer were dispensed into each well of a 96-well deep-well plate in advance. The stained samples were transferred into the deep-well plate containing the lysis buffer for erythrocyte lysis. After completing the transfer of an entire plate, the plate was incubated in the dark for 15-20 min. Upon completion of lysis, the plate was centrifuged at 2000 rpm for 4 min. Each well was washed with 1 ml of PBS. Subsequently, the cells were resuspended in 200 µl of PBS, transferred to a 96-well plate, and washed twice more using the same procedure. The samples were resuspended in 200 µl of PBS per well and then subjected to flow cytometry detection. […]

[2] = target: T1, BTK recombinant human protein (Homo sapiens, UniProt Q06187); assay: Inhibitory activity against BTK (HTRF KinEASE-TK kit); format: biochemical
T1 construct: purchased Thermo PV3363
Description: Test example 1: Inhibitory activity of compounds of the present disclosure against BTK • I. Experimental materials and instruments • 1. BTK recombinant human protein (Thermo, PV3363) • 2. HTRF KinEASE-TK kit (Cisbio, 62TK0PEC) • 3. 1 M MgCl2 (Thermo, AM9530G) • 4. 1 M MnCl2 (Sigma, M1787-100ML) • 5. Adenosine 5'-triphosphate (ATP) (New England Biolabs, P0756L) • 6. DTT 2M (Sangon Biotech, B645939) • 7. Ultrapure water (Invitrogen, 10977-015) • 8. OptiPlate-384, white opaque 384-well microplate (PerkinElmer, 6007290) • 9. 96-well round-bottom plate (Corning, 3788) • 10. Biochemical incubator (Shanghai Boxun Medical & Biological Instruments Co., Ltd., BSP-100) • 11. 15-mL centrifuge tube (Corning) • 12. Benchtop high-speed centrifuge (Changsha Yingtai Instrument Co., Ltd., TD4N) • 13. Multifunctional microplate reader (PerkinElmer, EnVision) • 14. Bravo liquid handling platform (Agilent Technologies, SGC120TH34702) • II. Experimental procedure
The HTRF KinEASE-TK kit is designed to detect changes in BTK enzyme activity based on two technologies, i.e., fluorescence resonance energy transfer and time-resolved fluorescence. The kit is operated in two stages: 1) enzyme reaction stage: the enzyme reaction is initiated by adding ATP, where the enzyme phosphorylates the substrate, and the compounds are then added to competitively bind to BTK against ATP, thereby inhibiting substrate phosphorylation; and 2) detection stage: after the enzyme reaction is complete, a detection reagent is added to terminate the reaction. Different groups on the phosphorylated substrate bind to the energy donor and energy acceptor, respectively, bringing the two into close proximity. During the instrumental readout, the energy donor is excited by an external light source, which enables resonance energy transfer to the proximal energy acceptor. The acceptor, in turn, becomes excited and emits light at a specific wavelength. Thus, changes in enzyme activity can be detected by measuring the signal values, and the inhibition rate of the compounds against the target enzyme can be calculated, thereby evaluating the inhibitory effect of the compounds on BTK enzyme activity.
Preparation of enzyme reaction buffer: 5× Kinase Buffer was diluted 5-fold with ultrapure water, and then the stock solutions of MgCl2, MnCl2 and DTT were added. The final composition of the buffer was as follows: 1× Kinase Buffer, 10 mM MgCl2, 1 mM MnCl2, and 1 mM DTT.
(§1) Preparation of 5 × BTK working solution: The BTK (5.17 µM) stock solution was removed from -20°C storage. Given that the BTK concentration in the enzyme reaction system was 2 nM and the concentration of the 5× working solution was 10 nM, the BTK stock solution was diluted 517-fold with the enzyme reaction buffer according to the volume required for the experiment. The diluted solution was then added to the 384-well plate at 2 µL per well. The plate was placed in a plate spinner and centrifuged at 2000 rpm for 1 minute to bring the liquid to the bottom of the wells.
as §1, with “[…]. Given” for “Preparation of 5 × BTK working solution: The BTK (5.17 µM) stock solution was removed from -20°C storage. Given”, “the SEB” for “the BTK”, “was 50” for “was 2”, “was 250” for “was 10”, “diluted 10-fold” for “diluted 517-fold”
The test compounds dissolved in 100% DMSO at 20 mM were diluted with 100% DMSO to a concentration of 200 µM, which represents the 200× concentration of the highest compound concentration point in the reaction system. The compounds at this concentration were then subjected to 10-point 3-fold serial dilution with 100% DMSO. The positive control wells and negative control wells were set with 100% DMSO. […]

[3] = 2 nM BTK, 10 µM ATP, 0.5 hours preincubation at 25°C; read-out: IC50 values of inhibitory activity against BTK
[4] = read-out: IC50 values of inhibitory activity against BTK; 2 nM BTK, 10 µM ATP, 0.5 hours preincubation at 25°C

T1 sequence (Q06187 whole entry): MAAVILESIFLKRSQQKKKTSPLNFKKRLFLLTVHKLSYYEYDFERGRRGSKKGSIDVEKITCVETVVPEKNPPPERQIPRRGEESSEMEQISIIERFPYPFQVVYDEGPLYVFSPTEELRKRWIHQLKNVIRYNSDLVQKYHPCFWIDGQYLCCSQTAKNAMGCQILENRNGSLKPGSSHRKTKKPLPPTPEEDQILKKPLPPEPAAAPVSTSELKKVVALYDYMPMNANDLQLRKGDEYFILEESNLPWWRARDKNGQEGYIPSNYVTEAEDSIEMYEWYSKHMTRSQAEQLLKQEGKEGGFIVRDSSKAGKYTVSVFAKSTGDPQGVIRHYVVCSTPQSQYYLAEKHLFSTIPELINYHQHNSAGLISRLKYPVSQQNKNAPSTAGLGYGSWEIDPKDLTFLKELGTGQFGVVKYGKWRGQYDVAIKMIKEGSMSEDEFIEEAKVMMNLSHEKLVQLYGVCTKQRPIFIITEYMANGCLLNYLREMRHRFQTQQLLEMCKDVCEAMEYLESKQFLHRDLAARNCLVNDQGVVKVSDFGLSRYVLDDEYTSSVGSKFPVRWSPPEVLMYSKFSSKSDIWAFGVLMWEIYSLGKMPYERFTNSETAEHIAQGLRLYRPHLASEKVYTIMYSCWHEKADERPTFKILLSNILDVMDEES

Compound	IC50 [1]	IC50 [2, 3]	IC50 [2, 4]
C=CC(=O)N(C)CCOc1c(N)ncnc1-c1cc(F)cc(NC(=O)c2ccc(C3(C)CC3)cc2F)c1C [Example 2, N-(3-(6-amino-5-(2-(N-methacrylamido)ethoxy)pyrimidin-4-yl)-5-fluoro-2-methylphenyl)-2-fluoro-4-(1-methylcyclopropyl)benzamide]	10 to 100 nM	–	–
C=CC(=O)N(C)CCOc1c(N)ncnc1-c1cc(F)cc(NC(=O)c2ccc3c(c2F)OCC32CC2)c1C [Example 5, N-(3-(6-amino-5-(2-(N-methacrylamido)ethoxy)pyrimidin-4-yl)-5-fluoro-2-methylphenyl)-7-fluoro-2H-spiro[benzofuran-3,1'-cyclopropane]-6-carboxamide]	10 to 100 nM	6.9 nM	–
C=CC(=O)N(C)CCOc1c(N)ncnc1-c1cc(F)cc(NC(=O)c2ccc3c(c2F)OC2(CC2)C3)c1C [Example 20]	10 to 100 nM	–	–
C=CC(=O)N1CCC[C@H]1COc1c(N)ncnc1-c1cc(F)cc(NC(=O)c2ccc3c(c2F)OCC3(C)C)c1C [Example 31, (S)-N-(3-(5-((1-acryloylpyrrolidin-2-yl)methoxy)-6-aminopyrimidin-4-yl)-5-fluoro-2-methylphenyl)-7-fluoro-3,3-dimethyl-2,3-dihydrobenzofuran-6-carboxamide]	10 to 100 nM	0.7 nM	–
C=CC(=O)N(C)CCOc1c(N)ncnc1-c1cc(F)cc(NC(=O)c2cc3c(cc2F)C2(CC3)CC2)c1CO [Example 11, N-(3-(6-amino-5-(2-(N-methacrylamido)ethoxy)pyrimidin-4-yl)-5-fluoro-2-(hydroxymethyl)phenyl)-6'-fluoro-2',3'-dihydrospiro[cyclopropane-1,1'-indene]-5'-carboxamide]	10 to 100 nM	–	4.2 nM
C=CC(=O)N(C)CCOc1c(N)ncnc1-c1cc(F)cc(NC(=O)c2sc3c(c2F)C2(CC3)CC2)c1C [Example 26-2, N-(3-(6-amino-5-(2-(N-methacrylamido)ethoxy)pyrimidin-4-yl)-5-fluoro-2-methylphenyl)-3-fluoro-5,6-dihydrospiro[cyclopenta[b]thiophene-4,1'-cyclopropane]-2-carboxamide]	–	–	6.15 nM
C=CC(=O)N(C)CCOc1c(N)ncnc1-c1cc(F)cc(NC(=O)c2sc3c(c2F)CC(C)(C)C3)c1C [Example 6, N-(3-(6-amino-5-(2-(N-methacrylamido)ethoxy)pyrimidin-4-yl)-5-fluoro-2-methylphenyl)-3-fluoro-5,5-dimethyl-5,6-dihydro-4H-cyclopenta[b]thiophene-2-carboxamide]	–	–	6.3 nM
[2H]C([2H])([2H])N(CCOc1c(N)ncnc1-c1cc(F)cc(NC(=O)c2cc3c(cc2F)C2(CC2)CO3)c1C)C(=O)C=C [Example 17, N-(3-(6-amino-5-(2-(N-(methyl-d3)acrylamido)ethoxy)pyrimidin-4-yl)-5-fluoro-2-methylphenyl)-5-fluoro-2H-spiro[benzofuran-3,1'-cyclopropane]-6-carboxamide]	10 to 100 nM	5.74 nM	–
C=CC(=O)N(C)CCOc1c(N)ncnc1-c1cc(F)cc(NC(=O)c2ccc3c(c2F)OC(C)(C)C3)c1C [Example 4, N-(3-(6-amino-5-(2-(N-methacrylamido)ethoxy)pyrimidin-4-yl)-5-fluoro-2-methylphenyl)-7-fluoro-2,2-dimethyl-2,3-dihydrobenzofuran-6-carboxamide]	10 to 100 nM	–	5.1 nM
C=CC(=O)N(C)CCOc1c(N)ncnc1-c1cc(F)cc(NC(=O)c2cc3c(cc2F)C2(CC3)CC2)c1C [Example 1, N-(3-(6-amino-5-(2-(N-methacrylamido)ethoxy)pyrimidin-4-yl)-5-fluoro-2-methylphenyl)-6'-fluoro-2',3'-dihydrospiro[cyclopropane-1,1'-indene]-5'-carboxamide]	10 to 100 nM	6.09 nM	–
C=CC(=O)N(C)CCOc1c(N)ncnc1-c1cc(F)cc(NC(=O)c2cc3c(cc2F)C(C)(C)CC3)c1C [Example 12, N-(3-(6-amino-5-(2-(N-methacrylamido)ethoxy)pyrimidin-4-yl)-5-fluoro-2-methylphenyl)-6-fluoro-1,1-dimethyl-2,3-dihydro-1H-indene-5-carboxamide]	10 to 100 nM	4 nM	–
C=CC(=O)N1C[C@H](OC)C[C@H]1COc1c(N)ncnc1-c1cc(F)cc(NC(=O)c2ccc3c(c2F)OCC3(C)C)c1C [Example 33, N-(3-(5-(((2S,4R)-1-acryloyl-4-methoxypyrrolidin-2-yl)methoxy)-6-aminopyrimidin-4-yl)-5-fluoro-2-methylphenyl)-7-fluoro-3,3-dimethyl-2,3-dihydrobenzofuran-6-carboxamide]	–	1.25 nM	–
